Data on 29 compounds can be found in patent US20190223437A1, “ACTIVE COMPOUND COMBINATIONS COMPRISING A 5-SUBSTITUTED IMIDAZOLE DERIVATIVE” (BAYER CROPSCIENCE AKTIENGESELLSCHAFT, priority 2016, published 2019).

Marks after values point to notes of the source that are not given here.

The first series in a line: Measurement of Log P values by HPLC on reversed phase columns (EEC directive 79/831 Annex V.A8). The class given is physicochemical.
Details: not given
Regarding `C=CCOC(Cc1ccc(Cl)cc1F)(Cn1cncc1Cl)C1(Cl)CC1` (centres unmarked) [Example I-123], the LogP was 3.31^[a].

On to `CC(C)C(O)(Cc1ccc(F)cc1F)Cn1cncc1C#N` (centres unmarked) [Example I-128], for which the LogP is 2.52^[a].

In the case of `O=C(Cc1ccccc1F)c1cncn1CC(O)(Cc1ccccc1F)C1(Cl)CC1` (centres unmarked) [Example I-134], the LogP was 3.60^[a].

Regarding `CCOC(=O)c1cncn1CC(O)(Cc1ccccc1F)C1(Cl)CC1` (centres unmarked) [Example I-135], the LogP is 2.73^[a].

For the compound `N#Cc1cncn1CC(O)(Cc1ccccc1F)C1CCC1` (centres unmarked) [Example I-137], the LogP was 2.46^[a].

For the compound `CC(C)(C)C(O)(Cc1ccccc1F)Cn1cncc1C#N` (centres unmarked) [Example I-138], the LogP is 2.73^[a].

Consider `CC(C)C(O)(Cc1ccccc1F)Cn1cncc1C#N` (centres unmarked) [Example I-139], for which the LogP was 2.40^[a].

Consider `Cc1cccc(CC(O)(Cn2cncc2Cl)C2(Cl)CC2)c1F` (centres unmarked) [Example I-143], for which the LogP was 2.35^[a].

As to `OC(Cc1cccc(F)c1F)(Cn1cncc1Cl)C1(Cl)CC1` (centres unmarked) [Example I-147], the LogP is 2.17^[a].

With `N#Cc1cncn1CC(O)(Cc1cccc(F)c1F)C1CCC1` (centres unmarked) [Example I-148], the LogP is 2.57^[a].

Consider `CC(C)C(O)(Cc1cccc(F)c1F)Cn1cncc1C#N` (centres unmarked) [Example I-149], for which the LogP was 2.47^[a].

As for `N#Cc1cncn1CC(O)(Cc1ccnc(Cl)c1F)C1(Cl)CC1` (centres unmarked) [Example I-152], the LogP was 2.25^[a].

Take `N#Cc1cncn1CC(O)(Cc1ccc(F)cc1Cl)C1(Cl)CC1` (centres unmarked) [Example I-154]: the LogP is 3.00^[a].

As for `Cc1cc(F)ccc1CC(O)(Cn1cncc1Cl)C1(Cl)CC1` (centres unmarked) [Example I-155], the LogP was 2.46^[a].

On to `N#Cc1cncn1CC(O)(Cc1cc(F)cc(F)c1)C1(Cl)CC1` (centres unmarked) [Example I-156], for which the LogP was 2.86^[a].

As to `N#Cc1cncn1CC(O)(Cc1ccc(F)cc1)C1(Cl)CC1` (centres unmarked) [Example I-157], the LogP is 2.75^[a].

On to `OC(Cc1ccc(F)cc1)(Cn1cncc1Cl)C1(Cl)CC1` (centres unmarked) [Example I-158], for which the LogP is 2.13^[a].

As for `N#Cc1cncn1CC(O)(Cc1ccc(F)cc1)C1(Cl)CCC1` (centres unmarked) [Example I-159], the LogP is 2.98^[a].

Consider `N#Cc1cncn1CC(O)(Cc1ccc(F)cc1)C1CCC1` (centres unmarked) [Example I-160], for which the LogP was 2.56^[a].

As for `N#Cc1cncn1CC(O)(Cc1ccc(F)cc1)C1CCCC1` (centres unmarked) [Example I-161], the LogP was 2.82^[a].

For the compound `CC(C)C(O)(Cc1ccc(F)cc1)Cn1cncc1C#N` (centres unmarked) [Example I-162], the LogP is 2.44^[a].

For `N#Cc1cncn1CC(O)(Cc1ccncc1F)C1(Cl)CC1` (centres unmarked) [Example I-163], the LogP is 1.62^[a].

Regarding `OC(Cc1ccncc1F)(Cn1cncc1Cl)C1(Cl)CC1` (centres unmarked) [Example I-164], the LogP is 1.46^[a].

In the case of `N#Cc1cncn1CC(O)(Cc1cc(F)ncc1Cl)C1(Cl)CC1` (centres unmarked) [Example I-165], the LogP is 2.38^[a].

For `N#Cc1cncn1CC(O)(Cc1ccccc1I)C1(Cl)CC1` (centres unmarked) [Example I-166], the LogP was 3.13^[a].

As for `N#Cc1cncn1CC(O)(Cc1ccnnc1Cl)C1(Cl)CC1` (centres unmarked) [Example I-168], the LogP is 1.59^[a].

Take `O=C(Cc1ccccc1)c1cncn1CC(O)(Cc1ccccc1)C1(Cl)CC1` (centres unmarked) [Example I-169]: the LogP is 3.56^[a].

Still in this series, the particulars now being: reversed phase HPLC column; method [a]: LC-UV, acidic range, 0.1% formic acid in water and acetonitrile as eluent; Table 1, compounds of formula (I).
Compound `N#Cc1cncn1C[C@](O)(Cc1ccccc1F)C1(Cl)CC1` [Example I-132, 1-[(2R)-2-(1-chlorocyclopropyl)-3-(2-fluorophenyl)-2-hydroxypropyl]-1H-imidazole-5-carbonitrile] came in with a chromatographic logP of 2.59.

Consider `N#Cc1cncn1C[C@@](O)(Cc1ccccc1F)C1(Cl)CC1` [Example I-133, 1-[(2S)-2-(1-chlorocyclopropyl)-3-(2-fluorophenyl)-2-hydroxypropyl]-1H-imidazole-5-carbonitrile], for which the chromatographic logP came out at 2.59.
